# Legend:
# 125I-TGF-β2-α2M* complex = target: T1, 125I-TGF-β2-α2M* complex (Homo sapiens, UniProt P01023); test: Dissociation of preformed 125I-TGF-β2-α2M* complex; assay type: binding; details: added after 30 min preincubation of complex
# T1 construct: was purified from pooled citrate-treate human plasma; from tissue; host or cells: pooled citrate-treated human plasma
# T1 sequence (P01023 24-1474): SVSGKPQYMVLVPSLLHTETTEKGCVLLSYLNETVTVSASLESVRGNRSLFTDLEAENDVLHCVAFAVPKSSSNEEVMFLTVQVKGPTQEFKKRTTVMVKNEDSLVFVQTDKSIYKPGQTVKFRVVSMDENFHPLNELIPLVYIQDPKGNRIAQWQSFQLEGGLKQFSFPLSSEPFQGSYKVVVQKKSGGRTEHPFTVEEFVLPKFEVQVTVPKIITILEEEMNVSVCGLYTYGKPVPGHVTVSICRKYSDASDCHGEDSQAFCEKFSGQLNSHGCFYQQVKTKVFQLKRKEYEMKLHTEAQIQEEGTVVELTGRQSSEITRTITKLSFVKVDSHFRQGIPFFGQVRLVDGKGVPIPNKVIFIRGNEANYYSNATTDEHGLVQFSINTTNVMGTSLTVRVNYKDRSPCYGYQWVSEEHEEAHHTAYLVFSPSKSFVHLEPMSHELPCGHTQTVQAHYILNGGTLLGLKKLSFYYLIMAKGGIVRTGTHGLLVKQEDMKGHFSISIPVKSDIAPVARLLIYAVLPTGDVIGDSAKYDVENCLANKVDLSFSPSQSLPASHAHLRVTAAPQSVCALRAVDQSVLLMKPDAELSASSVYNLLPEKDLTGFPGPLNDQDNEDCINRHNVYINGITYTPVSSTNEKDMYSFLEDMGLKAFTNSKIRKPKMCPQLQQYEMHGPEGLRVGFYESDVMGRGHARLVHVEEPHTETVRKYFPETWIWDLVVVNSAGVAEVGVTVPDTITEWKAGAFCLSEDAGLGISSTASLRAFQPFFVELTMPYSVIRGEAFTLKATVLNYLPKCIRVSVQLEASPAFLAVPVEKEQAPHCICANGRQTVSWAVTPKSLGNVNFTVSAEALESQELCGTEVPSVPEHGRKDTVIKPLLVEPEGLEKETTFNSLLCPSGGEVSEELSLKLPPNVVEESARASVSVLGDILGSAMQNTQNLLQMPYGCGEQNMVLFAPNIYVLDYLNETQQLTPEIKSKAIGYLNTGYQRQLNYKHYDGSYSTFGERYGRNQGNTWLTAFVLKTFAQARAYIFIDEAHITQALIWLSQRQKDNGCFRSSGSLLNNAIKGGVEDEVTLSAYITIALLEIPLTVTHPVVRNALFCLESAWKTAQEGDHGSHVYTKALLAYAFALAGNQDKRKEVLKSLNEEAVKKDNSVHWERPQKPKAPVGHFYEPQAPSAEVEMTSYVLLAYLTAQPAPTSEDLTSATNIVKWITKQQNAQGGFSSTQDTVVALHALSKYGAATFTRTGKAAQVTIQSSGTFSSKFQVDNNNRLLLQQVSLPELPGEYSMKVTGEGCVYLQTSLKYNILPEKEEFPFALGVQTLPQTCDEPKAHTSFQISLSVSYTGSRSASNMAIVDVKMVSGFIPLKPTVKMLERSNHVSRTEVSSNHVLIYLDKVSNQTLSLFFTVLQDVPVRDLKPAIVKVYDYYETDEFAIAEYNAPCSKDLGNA
# [1] = Plasma clearance of 125I-TGF-β2 with and without α2M* and arachidonic acid; assay type: in vivo, mice; details: control experiments, no α2M*
# Protocol: TGF ? β1-α2M* and TGF- ? 2- ? 2M* complexes are cleared from plasma by the ? liver (30). To test the possibility that fatty acids may be able to affect the plasma clearance of TGF ? β and α2M* complexes, ^125I-TGF ? β1 or ^125I-TGF- ? 2 were prei presence or absence of 10 μM arachidonic acid at room temperature for 30 min, and then injected into mice via tail vein according to published procedures (19). At several time intervals (10 sec, 1, 2, 3, 5, 10, 15, 20, 30 and 60 min) about 50 μl of blood was collected and counted by a γ-counter. […] The t 1+α2M* or ^125I-TGF- ? 2+α2M* were approximately 4 min. These twith published values of free ^125I-TGF- ? 1,2 and ^125I-TGF- ? 1,2-α2M* complexes, respe (19). In the presence of arachidonic acid, the t1/2s of ^125I-TGF ? β1+α2M* and ^125I-TGF α2M* were decreased to approximately 1-2 min; these are essentially identical to the t1/2s of free ^125I-TGF- ? 1 and ^125I-TGF ? β2 (FIGS. 7A and B). In control experiments, arachidonic acid did no affect the plasma clearance of free ^125I-TGF ? β1 and ^125I-TGF- ? 2.
# Plasma clearance of ^125I-TGF ? β in the presence and absence of ? 2M*-^125I-TGF- ? 1 nM) or ^125I-TGF- ? 2 (1 nM) was pre-incubated with ? […] The radioactivity in the blood sample obtained at 10 s was taken as 100%.
# [2] = target: T2, α2M* and basic fibroblast growth factor (bFGF) (Homo sapiens, UniProt P01023); test: Complex formation between α2M* and basic fibroblast growth factor; assay type: binding
# T2 sequence (P01023 24-1474): T1 sequence (P01023 24-1474)
smiles,measurement,setting,value
CCCCC/C=C\C/C=C\C/C=C\C/C=C\CCCC(=O)O [arachidonic acid],concentration dissociating the 125I-TGF-β2-α2M* complex,125I-TGF-β2-α2M* complex,250 µM
same,effect on plasma clearance of free 125I-TGF-β2,[1],did no affect
same,blocking of complex formation between α2M* and bFGF,[2],block complex formation

# Reference: US20040229791A1, “Compositions and methods of modulating TGF-beta activity by fatty acids” (priority 2002, published 2004)
